Assay results published in patent US20080145316A1, “Skin coating with microbial indicator” (priority 2006, published 2008).

Assays:
S. aureus [1] = test: Colour change of cured skin sealant film containing indicator dye on contact with S. aureus suspension; conditions: 100 μL S. aureus 10^6 CFU/mL on cured InteguSeal film, dye 200-300 ppm
Experimental: Reichardt's dye (from Sigma-Aldrich Chemical Co. Inc., Milwaukee Wis.) was mixed into 2 grams of InteguSeal® skin sealant (Medlogic Global Ltd., Cornwall, UK) containing an extra 0.2 gram of tributyl o-acetylcitrate placticizer (from Sigma-Aldrich) to give a deep blue solution with 200 ppm concentration of the dye. A drop (25 mg) of the mixture was then placed onto a microscope glass slide (5 cm×7.5 cm) and spread out using a glass rod to give thin coating smear (3 cm×2 cm). After complete cure had occurred (5 minutes) the cured film was exposed to a suspension of S. aureus (gram positive bacteria) at 10^6 CFU/mL (colony forming units). 100 μL of this suspension was placed onto a spot on the cured film and the area observed. In less than 10 seconds the area in contact with the bacteria suspension decolorized, visually indicating the contamination. When a 100 μL sample of the control media broth or water alone was placed on the sealant no color discharge was observed.
A 2 gram blue-purple solution of 300 ppm Chrome Azurol S (from Sigma-Aldrich) in InteguSeal® skin sealant was prepared to give a 300 ppm concentration of the dye. A drop 25 mg of the mixture was placed onto a glass slide and spread using a glass rod to give a thin smear. The sealant was allowed to fully cure (5 minutes). After this time 100 μL suspension of S. aureus at 10^6 CFU/mL was placed on the cure sealant and then visually observed for a color change.
(§1) A 2 gram solution of 300 ppm Phenol Red (from Sigma-Aldrich) in InteguSeal® skin sealant was prepared by mixing the ingredients to give a pale pink-gray liquid. 25 mg of the mixture was then placed onto a glass slide and spread out using a glass rod to give a thin coating smear on the glass. After the mixture fully cured (5 minutes) 100 μL of suspension of S. aureus bacteria at 10^6 CFU/mL was placed onto the cured sealant and visually observed for any color change. […] No color change or development was observed when the color media or water was placed on the sealant film.
A 2 gram sample of 300 ppm Eriochrome Blue Black B (from Sigma-Aldrich) in InteguSeal® skin sealant was prepared by mixing the ingredients to give a gray-blue mixture. 25 mg of the mixture was placed on a glass slide and spread with a glass rod to give a thin smear. The film was allowed to fully cure (5 minutes) and then 100 μL of S. aureus suspension at 10^6 CFU/mL was applied to the cured film and observed for a color change. […] No color change was observed when control media or water was applied to the film.

E. coli = test: Colour change of cured film containing indicator dye on contact with E. coli suspension; conditions: for time to visible color change of film / visually observed color change: 100 μL E. coli 10^5 CFU/mL on cured InteguSeal film, dye 200-300 ppm
Experimental: as §1, with “E. coli” for “S. aureus”, “10^5” for “10^6”
(§2) Reichardt's dye (from Sigma-Aldrich) was mixed into 2 grams of InteguSeal® skin sealant containing an extra 0.2 gram of tributyl o-acetylcitrate placticizer (from Sigma-Aldrich) to give a deep blue solution with 200 ppm concentration of the dye. A drop (25 mg) of the mixture was then placed onto a microscope glass slide (5 cm×7.5 cm) and spread out using a glass rod to give thin coating smear (3 cm×2 cm). After complete cure had occurred (5 minutes) the cured film was exposed to a suspension of E. coli (gram negative bacteria) at 10^5 CFU/mL (colony forming units). 100 μL of this suspension was placed onto a spot on the cured film and the area observed. In less than 10 seconds the area in contact with the bacteria suspension decolorized, visually indicating the contamination. When a 100 μL sample of the control media broth or water alone was placed on the sealant no color discharge was observed. On a separate untouched part of the cured film was placed 100 μL suspension of A. niger (mold) at 10^5 CFU/mL and the area again observed. In less than 10 seconds the Reichardt's dye had decolorized where the mold suspension was in contact with the film.
Phenol red was dissolved in 3 other curable resins at a concentration of 300 ppm and tested with E. coli as described in example 5 above. The resins tried were: • Elmer's glue-all (Elmer's Products Inc., Columbus Ohio) • Contact cement (DAP Weldwood Inc., Dayton, Ohio) • Gelatin USP (unflavored. The Kroger Co., Cincinnati, Ohio) 100 μL suspension of E. coli was then placed on the cured film and visually observed. In all three resins the area in direct contact with the bacteria suspension turned red.

S. aureus [2] = test: Color change measurement with spectrometer (Minolta cm-2600d), film area before and after exposure to microbes; conditions: CIELAB, cured InteguSeal film before vs after exposure to microbes
Description: The color change inherent in the skin coating with indicator may be considered as a visual indicator with the user visually observing a color change as a signal that infection or microbial contamination is present, or the color change could also be measured electronically. Such measurements could be conducted using an optical device or other spectroscopic methods known to those skilled in the art to measure changes in color such as spectrophotometers and spectrodenitometers. The instruments measure color space (as described in “Pocket guide to digital printing” (1997) by Frank Cost, Delmar Publishers Inc., at page 144), the most widely used color space is CIELAB. This defines three variables, L*, a*, and b*, that have the following meaning:
Because CIELAB color space is somewhat uniform, a single number can be calculated that represents the difference between two colors as perceived by the human being. This difference is termed ΔE and is calculated by taking the square root of the sum of the squares of the three differences (ΔL*, Δa*, and Δb*) between the two colors (i.e. starting color and after color change).
Although in each of the examples described above the color change when in contact with microbes was clearly visible it would also be possible to measure this color change with an optical color change meter or sensor. This was conduced on Examples 1, 2, and 3 by illustration. The color change was measured using a spectrometer (Minolta cm-2600d. Minolta Co., Japan) and the reading obtained by measuring the film area before and after exposure to microbes. The reading was recorded in units of ΔE.

A. niger = test: Colour change of cured skin sealant film containing indicator dye on contact with A. niger suspension; conditions: 100 μL A. niger (mold) 10^5 CFU/mL on cured InteguSeal film, dye 200 ppm
Experimental: as §2

Structure (SMILES)	time to visible color change of film (S. aureus [1])	visually observed color change (S. aureus [1])	time to visible color change of film (E. coli)	visually observed color change (E. coli)	visually observed color change in other curable resins (E. coli; 300 ppm dye in Elmer's glue-all, Contact cement, Gelatin USP, 100 μL E. coli suspension on cured film, all three resins)	color change ΔE (S. aureus [2])	time to visible color change of film (A. niger)	visually observed color change (A. niger)
O=S(=O)([O-])c1cc(O)c(/N=N/c2ccc3ccccc3c2O)c2ccccc12.[Na+] [Eriochrome Blue Black B]	less than 5 seconds	film color was discharged to leave a colorless spot						
O=S1(=O)OC(c2ccc(O)cc2)(c2ccc(O)cc2)c2ccccc21 [Phenol Red, phenolsulfonephthalein]	less than 5 seconds	bright red color developed	less than 5 seconds	bright red color developed	turned red	35 ΔE		
CC1=C/C(=C(\c2cc(C)c(O)c(C(=O)[O-])c2)c2c(Cl)ccc(S(=O)(=O)[O-])c2Cl)C=C(C(=O)[O-])C1=O.[Na+].[Na+].[Na+] [Chrome Azurol S]	≤ 5 s	red color developed				27 ΔE		
[O-]c1c(-c2ccccc2)cc(-[n+]2c(-c3ccccc3)cc(-c3ccccc3)cc2-c2ccccc2)cc1-c1ccccc1 [Reichardt's dye, 4-(2,4,6-triphenylpyridinium-1-yl)-2,6-diphenylphenolate]	less than 10 seconds	decolorized	less than 10 seconds	decolorized		32 ΔE	less than 10 seconds	decolorized
